Experimental findings from paper PMC7165133, “Functional expression and characterization of cinnamic acid 4-hydroxylase from the hornwort Anthoceros agrestis in Physcomitrella patens” (Plant Cell Reports, 2020) are described below.

In one series the test system is T1, Pp_WT (PpC4Hs).
T1 construct: gene PpC4H_1; native, crude protein extract of untransformed moss; six putative C4H genes, only two named in the main text; with NADPH--cytochrome P450 reductase
Briefly: HPLC of 4-coumaric acid formed, Michaelis-Menten fit. As to conditions: 5 mM NADPH, pH 7.0, 25 °C, 5 min; crude extract of untransformed moss; read-out: apparent Km. The class given is biochemical, Physcomitrium patens.

The subject of series [1] is T2, Physcomitrella patens NADPH:cytochrome P450 reductase(s) (CPR or POR), in Pp_AaC4H.
T2 construct: native reductase(s) of the host moss, four putative CPR genes; crude protein extract of moss expressing C-terminally 6xHis-tagged AaC4H; with trans-cinnamate 4-monooxygenase (Anthoceros agrestis)
The series is described as follows: HPLC of 4-coumaric acid formed (coupled C4H reaction), Michaelis-Menten fit. The class given is biochemical, Physcomitrium patens. As to conditions: 400 µM cinnamic acid, pH 7.0, 25 °C, 5 min; crude extract; NADPH oxidised by CPR, read-out via C4H; read-out: apparent Km.

Series [2] relates to T3, Physcomitrella patens NADPH:cytochrome P450 reductase(s) (CPR or POR), in Pp_WT.
T3 construct: native reductase(s), four putative CPR genes; crude protein extract of untransformed moss with its own C4Hs; with trans-cinnamate 4-monooxygenase; trans-cinnamate 4-monooxygenase
Described as above. It is filed as biochemical, Physcomitrium patens. The settings on record: 400 µM cinnamic acid, pH 7.0, 25 °C, 5 min; crude extract of untransformed moss; NADPH oxidised by CPR, read-out via C4H; read-out: apparent Km.

Substrate in series [3]: O=C(O)/C=C/c1ccccc1
Briefly: cells, lysate or membranes. As to conditions: 5 mM NADPH, pH 7.0, 25 °C, 5 min, crude extract with endogenous PpC4H background.

For orientation: Km means the substrate concentration at which the rate is half of its maximum.

As for `O=C(O)/C=C/c1ccccc1` [t-cinnamic acid], the Km with Pp_WT (PpC4Hs) stood at 25.1 ± 8.9 µM.

For the molecule `NC(=O)C1=CN([C@@H]2O[C@H](COP(=O)(O)OP(=O)(O)OC[C@H]3O[C@@H](n4cnc5c(N)ncnc54)[C@H](OP(=O)(O)O)[C@@H]3O)[C@@H](O)[C@H]2O)C=CC1` [NADPH], the results for the Km in series [1] and in series [2] were 88 ± 19.5 µM and 92.3 ± 10.8 µM, respectively.

B1: Pp_AaC4H (AaC4H, CYP73A260) (Anthoceros agrestis) (protein)
chain: MASGETTLGSTNTMFLDALSILEALLATIAVLWLVKQVTSSRLKPPPGPLALPILGNWLQVGDDLNHRNLSDLAKKYGDIFLLRMGQRNVVVVSSPELAKEVLLTQGVEFGSRTRNVVFDIFTGKGQDMVFTVYGEHWRRMRRIMTVPFFTSKVVQQSRVAWEDETDRVIADLKTNPKYAAASTTGVVLRQRLQLLMYNTMYRLMFDRRFESEDDPLFVQLKALNGERSRLAQSFEYNYGDFIPVLRPLLRNYLKICQDIKDRRLALFKNHFLDERKKLLDTKRSQTAASTGKCAIDHILDAQKNGKINEDNVLYIVENINVAAIETTLWSMEWGLAELVNNPDIQQKVREELDHVLGKGTPLTEPDIQAGKLSYLAAVVKETLRLHMAIPLLVPHMNLHQARLGGYDIPAESKVLVNAWYLANNPALWKDPETFRPERFLEGDKGAEPNGTDFRFLPFGVGRRSCPGIILALPLLNLVLGRLVQSFLLTCPPGVEKLDLSEKGGQFSLHIAAHSNIVVKPRPDM
On to B1, for which the Km in series [3] was 17.3 ± 5.0 µM.
